Tests used:
[1] = system: LC3 redistribution to autophagosomes in BC cells; experiment: GFP-LC3 autophagy assay (confocal microscopy); assay type: cell-based, human; details: pQCXIP-GFP-LC3 transfected cells, Eth 24 h
Source text: The cells were transfected with pQCXIP-GFP-LC3 plasmid using the Lipofectamine 3000 (Invitrogen; Thermo Fisher Scientific, Inc.) according to the recommended protocol by the manufacturer and then fixed in 4% paraformaldehyde. The percentage of cells with fluorescent dots representing GFP-LC3 translocation was counted. For visualization of cell nucleus, DAPI was used. Sections were observed using an Olympus laser scanning confocal microscope with imaging software (Olympus Fluoview FV-1000, Tokyo, Japan).
Figure 2 Eth induces autophagy in BC cells. (A): MCF-7, MDA-MB-231, or MDA-MB-436 cells were treated with increasing concentrations of Eth for 24 h. Western blot was performed using antibodies indicated. GAPDH was used as the loading control. (B): MCF-7 (MDA-MB-231 or MDA-MB-436) cells were treated with 2.4 µM (2.0 µM or 2.0 µM) Eth for the indicated times, and cell lysates were subjected to western blot assay. (C): MCF-7, MDA-MB-231, or MDA-MB-436 cells transfected with pQCXIP-GFP-LC3 plasmid were treated with increasing concentrations of Eth for 24 h, and assessed by immunoﬂuorescence analyses. Scale bar = 20 µm. (D): MDA-MB-231 or MDA-MB-436 cells transfected with pQCXIP-GFP-LC3 plasmid were treated with Eth (2.0 µM) and/or 3-MA (1 mM) for 24 h, and assessed by immunoﬂuorescence analyses. Scale bar = 20 µm. […] (F): MCF-7, MDA-MB-231, or MDA-MB-436 cells were treated with Eth (3.5 µM, 3.0 µM, or 3.0 µM) and/or 3-MA (1 mM) for 24 h and analyzed by MTT assay. (G): MCF-7, MDA-MB-231, or MDA-MB-436 cells were treated with Eth (2.4 µM, 2.0 µM, or 2.0 µM) and/or 3-MA (1 mM) for 24 h, and western blot was performed using antibodies indicated. *P < 0.05.
Figure 3 Eth induces autophagy through the AMPK/mTORC1 signaling. […] (D): MDA-MB-231 or MDA-MB-436 cells transfected with pQCXIP-GFP-LC3 plasmid were treated with Eth (2.0 µM) and/or CC (25 µM) for 24 h, and assessed by immunoﬂuorescence analyses. […] (G): MDA-MB-231 or MDA-MB-436 cells transfected with pQCXIP-GFP-LC3 plasmid were treated with Eth (1.0 µM or 1.6 µM) and/or Met (10 mM) for 24 h, and assessed by immunoﬂuorescence analyses. […]

[2] = system: MCF-7 xenografted and MDA-MB-231 xenografted murine models; experiment: Xenograft studies; assay type: in vivo, nude mice
Experimental: (§1) Female nude immunodeficient mice (nu/nu) (weighing ~16 g, 5-week-old) were purchased from Hunan SJA Laboratory Animal Co., Ltd. (Changsha, China), and maintained under specific pathogen-free conditions. Mice were given free access to sterile water and to a standard diet, and maintained under controlled conditions of temperature (22–24°C), humidity (40–70%), and light (12 h light-dark cycles). The present study was approved by Animal Ethics Committee of Hubei University of Medicine. The mice were subcutaneously injected with human BC MDA-MB-231 cells (5 × 10^6 cells which were suspended in 100 μL DMEM) into the right flank of each mouse. Treatments started when tumors reached a palpable size (0.5 cm in diameter). Mice were randomly divided into the following two groups: control group (vehicle; 0.8% DMSO, 12% cremophor, and 8% ethanol in normal saline; n = 8) and Eth-treated group (intraperitoneal injection of […] Eth; n = 8). The mice were treated 5 times per week for a total of […]. Caliper measurements of the longest perpendicular tumor diameters were performed twice a week to estimate the tumor volume, using the following formula: 4π/3 × (width/2)^2 × (length/2), representing the three-dimensional volume of an ellipse. Animals were sacrificed when tumors reached 1.5 cm or if the mice appeared moribund to prevent unnecessary morbidity to the mice.
To determine the anti-tumor effect of Eth on BC in vivo, MCF-7 xenografted and MDA-MB-231 xenografted murine models were generated. Once the tumors grew to a measurable size, each group was administered with vehicle (MCF-7 = 8, MDA-MB-231 = 8) or Eth (MCF-7 = 8; MDA-MB-231 = 8) i.p. at 2 mg/kg four times a week for 4 weeks. The tumor-bearing mice were humanely killed when their tumors reached 1.5 cm in diameter or when paralysis or major compromise in their quality of life occurred. […]
(A–B): Murine models were treated with vehicle, Eth (2 mg/kg) and the tumor volumes were calculated twice a week. **P < 0.01. […] (H–I): The expressions of LC3-II, AMPKα, and pAMPKα in xenograft tumor tissues were analyzed by western blot. […]

[3] = system: MCF-7, MDA-MB-231, and MDA-MB-436 cells; experiment: Soft-agar colony formation assay; assay type: cell-based, human; details: 2 weeks
Experimental: Cells were suspended in 1 mL of L-15 or DMEM containing 0.3% low-melting-point agarose (Amresco, Cleveland, Oh, USA) and 10% FBS, and plated on a bottom layer containing 0.6% agarose and 10% FBS in 6-well plate in triplicate. After 2 weeks, plates were stained with 0.2% gentian violet and the colonies were counted under light microscope (IX70; Olympus Corporation, Tokyo, Japan) after 2 weeks.

[4] = Body weight of xenografted mice; assay type: in vivo, nude mice; details: i.p. 2 mg/kg four times a week for 4 weeks
Experimental: as §1, with “mice. […]” for “mice.”

CCOC1c2c(ccc3c2OCO3)-c2ccc3cc4c(cc3c2N1C)OCO4 (stereo not drawn) [Eth, Ethoxysanguinarine]
GFP-LC3 staining pattern [1]: speckled fluorescent staining pattern | tumor weight ([2]; i.p. 2 mg/kg four times a week for 4 weeks): significantly reduced the tumor weight | tumor growth compared with vehicle control ([2]; i.p. 2 mg/kg four times a week for 4 weeks, P < 0.05): efficiently repressed tumor growth | expression levels of pAMPK and LC-3II in tumor specimens ([2]; western blot of xenograft tumors): upregulated | clonogenic ability (colony formation) [3]: significantly inhibited the clonogenic ability | body weight of the mice [4]: did not significantly reduce the body weight

Reference: publication PMC6960228, “Ethoxysanguinarine, a Novel Direct Activator of AMP-Activated Protein Kinase, Induces Autophagy and Exhibits Therapeutic Potential in Breast Cancer Cells” (Frontiers in Pharmacology, 2020)
